EC50 data for 97 compounds are collected here from PubChem BioAssay AID1902 (Broad Institute, 2009).

The term pEC50 denotes the negative decadic logarithm of the EC50, by convention in mol/L. By EC50 is commonly meant the concentration that produces a half-maximal response.

Structures are written as SMILES. pEC50: −log10 of the molar value. The source made the active and inactive calls.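 The calls were made as follows: active = EC50 no more than a set limit of log units above the highest dose; inactive = the rest.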 Bounds are passed on as bounds.

The assay addresses S. pyogenes SKKanGAS, kanamycin survival, BacTiterGlo, 6 h. Kind of assay: SKKanGAS survival reduction under kanamycin, dose response, streptokinase promoter inhibitor project, SKKanGAS strain, luminescence, dose confirmation (AID 1902).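 Also: lower survival reflects blocked streptokinase promoter driving kanamycin resistance gene.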
As for `COc1ccc(C2c3ccc(O)cc3Oc3ncn4nc(-c5ccncc5)nc4c32)cc1OC` (configuration not stated), the pEC50 was 5.20.

On to `CCCCCCCn1c(=O)c(C(=O)Nc2cnccn2)c(O)c2ccccc21`, for which the pEC50 is 5.67.

In the case of `Clc1ccc(/C=N/NC(=Nc2ccccc2)c2ccccn2)c(Cl)c1`, the pEC50 was 4.87.

As for `CC[C@@H]1CC=C[C@H]2[C@H]1C(=O)N(Cc1ccccc1)[C@H]2c1ccc(OC)c(Cl)c1`, the pEC50 was 5.38.

`c1csc(-c2csc3nc(CN4CCOCC4)nc(NCc4ccc5c(c4)OCO5)c23)c1`: the pEC50 was 5.31.

As to `Fc1cccc2sc(Nc3nnc(-c4ccco4)o3)nc12`, the pEC50 was 6.51.

`O=C(O)c1ccc(N=Nc2c(O)[nH]c3ccc(Br)cc23)cc1`: the pEC50 is 5.69.

Consider `COc1ccc(S(=O)(=O)NCC2CCCN(Cc3ccc(OC)cc3F)C2)cc1` (configuration not stated), for which the EC50 is > 15 µM (inactive).

In the case of `COc1ccc(C2=NOC(CNC(N)=S)C2)cc1` (configuration not stated), the pEC50 is 5.47.

In the case of `O=C(COC(=O)Cc1cn2ccsc2n1)Nc1nc2ccccc2s1`, the pEC50 is 5.60.

As to `NC(=S)N/N=C/c1ccc(C23CC4CC(CC(C4)C2)C3)cc1`, the pEC50 was 5.41.

In the case of `COC(=O)c1c(NC(=O)c2ccccc2)sc(C(=O)c2ccccc2)c1C`, the pEC50 is 5.27.

`CSc1nc2cc(Oc3cccc(Cl)c3Cl)c(Cl)cc2[nH]1`: the pEC50 is 5.53.

Turning to `COc1ccc(Cc2n[nH]c(=S)n2NC(=O)Nc2ccc(Cl)c(Cl)c2)cc1`, the pEC50 was 5.39.

Take `Oc1ccc(COCc2ccccc2)c2cccnc12`: the pEC50 is 5.73.

On to `Cc1cccnc1Nc1nc(-c2ccccn2)cs1`, for which the pEC50 was 6.15.

For the compound `Cc1nn(Cc2ccc(C(=O)Nc3nc4c(C)cccc4s3)o2)c(C)c1Br`, the pEC50 is 5.55.

Consider `O=C(Cc1ccccc1)Nn1c(O)c(/C=C2\C=Nc3ccccc32)sc1=S`, for which the pEC50 was 4.84.

For the compound `CC1CCc2c(sc3nc(C(C)(C)C)nc(N4CCN(C(=O)CCl)CC4)c23)C1` (configuration not stated), the pEC50 was 5.44.

For the compound `CCC(CC)c1nn2c(N)c(/C=C3\C(C)=Nc4ccccc43)c(=O)nc2s1`, the negative-log EC50 (pEC50) was 5.59.

On to `Oc1c(CN2CCN(c3ccccc3)CC2)cc(Br)c2cccnc12`, for which the pEC50 was 5.78.

As to `CCOc1ccc(NC(=S)N=Nc2c(O)[nH]c3ccccc23)cc1`, the negative logarithm of the EC50 (pEC50) was 6.28.

`CC(C)(C)c1ccc(C(=O)NC(=S)NNC(=O)COc2ccccc2)cc1`: the pEC50 was greater than 7.22.

For the compound `N=C1SCC(=O)N1c1ncc(Cc2cccc(Cl)c2)s1`, the pEC50 was 6.84.

Regarding `CCCC(=O)NC(c1ccco1)c1cc(Cl)c2cccnc2c1O` (configuration not stated), the pEC50 was 5.82.

`O=C(Nc1ccccc1Cc1ccccc1)c1ccccc1NS(=O)(=O)c1ccc(Cl)s1`: the pEC50 is 6.23.

Turning to `CC(C)Nc1cc(C(C)(C)C)nc2c(-c3ccccc3)cnn12`, the pEC50 was 5.35.

`COc1ccc(N2CCN(C(=S)NC(=O)c3cccs3)CC2)c([N+](=O)[O-])c1`: the pEC50 is 5.21.

For the compound `CCOC(=O)Cc1c(C)nc2c(-c3cccc(Br)c3)c[nH]n2c1=O`, the pEC50 was 5.45.

For `Cc1ccc2[nH]c(C(=O)N/N=C/c3ccccc3O)c(C)c2c1`, the pEC50 is 5.78.

`CCOC(=O)c1ccc(NC2=CC(=O)C(=O)c3ccccc32)cc1`: the pEC50 is 5.46.

Regarding `CC(=O)N(C)c1ccc(OCC(O)Cn2c3ccc(Cl)cc3c3cc(Cl)ccc32)cc1` (configuration not stated), the pEC50 is 5.47.

`Cc1ccc(C)c(N2CCN(C(=O)CCCCCn3c(=S)[nH]c4ccc(N5CCOCC5)cc4c3=O)CC2)c1`: the negative logarithm of the EC50 (pEC50) was 5.10.

`COc1ccc(C(=O)CC(=O)C(=O)Nc2ccccc2C(F)(F)F)cc1`: the pEC50 was 5.69.

In the case of `COc1cc(OC)cc(-c2cc3nc4c(c(N5CCN(c6ncccn6)CC5)n3n2)CCCC4)c1`, the pEC50 was 5.20.

For the compound `O=C(COc1c(Cl)cccc1Cl)Nc1ccccc1N1CCCC1`, the pEC50 was 5.20.

Regarding `CNC[C@H](Cc1ccccc1)NC[C@@H](Cc1cccc2ccccc12)NCCc1ccc(C)cc1`, the negative-log EC50 (pEC50) was 5.37.

Take `O=C(Nc1ccc(F)cc1)c1nc2c(nnn2Cc2cccc3ccccc23)c(=O)[nH]1`: the negative-log EC50 (pEC50) was 5.61.

Take `O=C(CNc1cccc2ccccc12)N/N=C/c1ccc[nH]1`: the EC50 is > 15 µM (inactive).

As for `CNC(=O)c1c(NC(=O)c2ccc(N3C(=O)CCC3=O)cc2)sc2c1CCC(C)C2` (configuration not stated), the pEC50 is 4.80.

For `CC(C)N1CCc2c(sc(NC(=O)c3ccc(S(=O)(=O)N(C)CC4CCCO4)cc3)c2C(N)=O)C1` (configuration not stated), the EC50 was > 15 µM (inactive).

`COc1ccc(Br)cc1/C=C/C(=O)NC(=S)Nc1ccc(Cl)c(C(=O)O)c1`: the pEC50 was 4.98.

Turning to `O=C(COc1ccccc1)NNC(=S)NC(=O)c1ccc(Cl)cc1Cl`, the pEC50 is 6.44.

With `Cc1ccc(C(=O)NC(=S)N(C)C2CCCCC2)cc1Br`, the pEC50 is 5.53.

As to `Nc1nc(-c2ccccn2)nc(N)c1Cc1ccccc1F`, the pEC50 is 4.81.

In the case of `CCOC(=O)c1sc(NC(=O)Nc2ccc(Cl)cc2)cc1C`, the pEC50 was 5.00.

Consider `CCOC(=O)c1cnc(-n2nc(C)cc2C)nc1NC1CCCCC1`, for which the pEC50 is greater than 7.22.

On to `O=C(N/N=C/c1cc(Br)ccc1O)c1ccncc1`, for which the pEC50 is 5.94.

For `Cc1cccc(NC(=S)/N=C(\N)Nc2nc(C)c3ccc(C)cc3n2)c1`, the EC50 was > 15 µM (inactive).

Consider `Nc1nc(Nc2ccc(Cl)cc2)nc(NCc2ccco2)c1[N+](=O)[O-]`, for which the pEC50 was 5.18.

Take `Cc1ccc(C)c(-c2csc(N)c2C(=O)OC(C)C)c1`: the pEC50 was 5.51.

Turning to `Oc1ccc(CN2CCc3ccccc3C2)c2cccnc12`, the negative-log EC50 (pEC50) is 5.39.

In the case of `CN(C(=O)Cc1c(C(=O)O)n(C)c2ccccc12)c1ccc(F)cc1`, the EC50 was > 15 µM (inactive).

As for `COc1cc2nc(CSc3nc(-c4ccc(F)cc4)cs3)[nH]c(=O)c2cc1OC`, the EC50 is > 15 µM (inactive).

Take `CC(C)C1OC2c3cccc4cccc(c34)C2N1c1ccccc1` (configuration not stated): the pEC50 is 5.59.

With `Oc1ccccc1C1CCCCC1c1ccccc1` (configuration not stated), the negative logarithm of the EC50 (pEC50) was 5.41.

`O=C(Cc1ccc(Br)cc1)Nc1nc2ccccc2[nH]1`: the pEC50 was 5.34.

Regarding `O=c1c2c(n3nnnc3n1Cc1ccccc1)-c1ccccc1CC21CCCC1`, the pEC50 is 5.78.

For the compound `O=C(O)c1ccc2c3c(ncnc13)-c1ccccc1C2=O`, the pEC50 was 5.28.

For the compound `CCC(CC)C1=NN2C(=N)/C(=C\c3cc(C)n(-c4cccc(C)c4)c3C)C(=O)N=C2S1`, the pEC50 was 5.54.

Take `Cc1nnc(NC(=O)c2ccc(S(=O)(=O)N(C)Cc3ccccc3)cc2)o1`: the negative-log EC50 (pEC50) was 5.33.

`CCCC(=O)NC(c1ccc(Cl)cc1Cl)c1ccc2cccnc2c1O` (configuration not stated): the negative logarithm of the EC50 (pEC50) is 6.04.

On to `Oc1ccc(Br)cc1/C=N/Nc1nc(N2CCCCC2)nc(N2CCOCC2)n1`, for which the pEC50 was 5.42.

In the case of `COc1ccccc1NC(=O)C(=O)NNC(=O)COc1ccc2ccccc2c1`, the pEC50 was 5.66.

Regarding `Oc1c(Cl)cc(Cl)c2cccnc12`, the pEC50 is 6.83.

On to `COC(=O)C1CN(C#N)N(c2ccc(Cl)cc2)C12c1ccccc1-c1ccccc12` (configuration not stated), for which the pEC50 was 5.38.

Consider `CC(C)=CCC/C(C)=C/Cc1c(O)ccc(C(=O)/C=C/c2ccc(O)cc2)c1O`, for which the pEC50 was 5.99.

As to `CC(C)NC(=S)NC(c1ccccc1)(c1ccccc1)c1ccccc1`, the pEC50 was 5.31.

`O=C(N/N=C/c1cc(Cl)cc([N+](=O)[O-])c1O)C(O)(c1ccccc1)c1ccccc1`: the pEC50 was 5.47.

For `CCCCn1c(=O)c(C(=O)Nc2ccccn2)c(O)c2ccccc21`, the pEC50 is 5.29.

For `Cc1ccc(C(=O)N/N=C/c2cc(Br)ccc2O)cn1`, the negative-log EC50 (pEC50) was 5.61.

Turning to `Cc1ccc(C2CC(c3cccs3)=NN2C(=O)c2ccc(Br)o2)cc1` (configuration not stated), the pEC50 is 5.71.

Take `Oc1c(Cl)cc(Cl)cc1/C=N/NC(=S)NC1CC2C=CC1C2` (configuration not stated): the negative logarithm of the EC50 (pEC50) is 6.75.

In the case of `C/C(N)=C(/C#N)C(=O)CSc1nc2scc(-c3ccccc3)c2c(=O)n1C`, the negative logarithm of the EC50 (pEC50) was 5.79.

As to `CC(C)(C)C(=O)N1N=C(c2ccc(NS(C)(=O)=O)cc2)CC1c1cccs1` (configuration not stated), the pEC50 was 5.13.

With `COc1ccc(C(=O)NC(=S)NNC(=O)c2ccccc2O)cc1`, the pEC50 was 5.84.

For `Cn1cccc1C(=O)Nc1nc(-c2ccccn2)cs1`, the pEC50 was 4.91.

On to `Cc1cc(NC(=S)N(Cc2ccc(Cl)cc2)Cc2ccc(C(=O)O)cc2)ccc1Cl`, for which the pEC50 is 5.16.

In the case of `Cc1nnc(SCC2=C(C(=O)O)N3C(=O)C(NC(=O)C(C)n4nc(C(F)(F)F)cc4C)C3SC2)s1` (configuration not stated), the pEC50 was 6.85.

For the compound `CCc1ccc(C2C(C#N)=C(N)C(C#N)(C#N)C3=CCC(C(C)(C)C)CC32)cc1` (configuration not stated), the pEC50 was 5.29.

On to `Nc1ncc(Br)cc1S(=O)(=O)Nc1cc(C(F)(F)F)cc(C(F)(F)F)c1`, for which the pEC50 is 5.19.

Regarding `O=c1c2ccccc2oc2cc(-c3ccc4[nH]ccc4c3)ccc12`, the pEC50 was 5.31.

In the case of `CCOc1ccc(C)cc1S(=O)(=O)NC1CCCCCC1`, the EC50 was > 15 µM (inactive).

For the compound `COc1cc(NS(=O)(=O)c2ccc3ccccc3c2)c2ncccc2c1`, the pEC50 was 5.97.

As for `O=[N+]([O-])c1ccc(O)c(/C=N/Nc2ncnc3c2cnn3-c2ccccc2)c1`, the pEC50 was 6.13.

`CC[C@@H](C)[C@H](CNC)NC[C@@H](Cc1cccc2ccccc12)NCCc1cccc(C(F)(F)F)c1`: the pEC50 was 5.61.

On to `O=C(N/N=C/c1c(O)n(C2CCCCC2)c(=S)[nH]c1=O)c1ccccc1O`, for which the pEC50 is 6.22.

Turning to `CCOC(=O)/C(=N\Nc1ccc(OC)cc1)c1csc(Nc2ccccc2)n1`, the pEC50 was 5.61.

Turning to `Cc1cc(C)cc(NS(=O)(=O)c2ccc(NC(=S)NC(=O)c3cccs3)cc2)c1`, the pEC50 is 5.20.

Turning to `CCCCCCCN1N=C(C)C(C(=O)c2ccccc2)C1=O` (configuration not stated), the negative logarithm of the EC50 (pEC50) was 5.88.

As for `CC1CC(C)CN(c2ncc3c(n2)CC(c2ccccc2Cl)CC3=O)C1` (configuration not stated), the pEC50 was 5.36.

Regarding `Cc1cccc(CSc2ncnc3c2cnn3Cc2ccccc2)c1`, the negative-log EC50 (pEC50) was 5.34.

As for `Nc1c(Cl)cc(-c2csc(N3CCCC3c3nc4cc(Cl)c(Cl)cc4n3CCOCCO)n2)cc1Cl` (configuration not stated), the EC50 is > 15 µM (inactive).

`N#C/C(=C(/O)c1cc2ccccc2o1)c1nc2ccccc2s1`: the pEC50 is 5.02.

Take `CC(C)OC(=O)c1cccnc1N1CCN(c2cccc(Cl)c2)CC1`: the pEC50 was 5.36.

Take `COC(=O)CSc1nnc(-c2cnccn2)n1C`: the EC50 is > 15 µM (inactive).

For the compound `CC(C)(C)c1ccc(Cn2ccc(-c3ccc4c(c3)OCO4)n2)cc1`, the pEC50 was 5.15.
